Results from patent US20180251431A1 (VERTEX PHARMACEUTICALS INCORPORATED, priority 2016, published 2018).
pIC50: −log10 of the molar value.

tested on: HEK293 cells; test: HEK293 VLCFA-LPC IC50 determination (13C-labeled C26:0 LPC by UHPLC/MS); type: cell-based, human; conditions: Homo sapiens, HEK293, 48 h, average of one or more replicates; 13C-labeled C26:0 LPC, 48 hours; read-out: Average HEK293 IC50
Summary of the method: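 Suspension HEK293 cells (final 0.5 million/mL after mixing with equal volume) incubated 48 hours with compound plus 13C-acetate (1.0 mg/mL in added media), shaking at 37° C. Lipids extracted with hexane/isopropanol or methanol, C13:0 LPC standard. UHPLC/MS of 13C-labeled C26:0 LPC (638.500/104.100 m/z); IC50 by four-parameter fit.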

Question: How did the pIC50 turn out when COc1cc(-n2ccc(NC(=O)C3(c4ccccc4F)CC3)n2)ncn1 [Compound 358, 1-(2-fluorophenyl)-N-(1-(6-methoxypyrimidin-4-yl)-1H-pyrazol-3-yl)cyclopropane-1-carboxamide] was run?
Answer: The pIC50 was under 5.30.

Question: N#Cc1cnccc1-n1ccc(NC(=O)C2(c3ccccc3F)CC2)n1 [Compound 335, N-[1-(3-cyano-4-pyridyl)pyrazol-3-yl]-1-(2-fluorophenyl)cyclopropanecarboxamide] was tested. Which pIC50 did it give?
Answer: The pIC50 was under 5.30.

Question: How did the pIC50 turn out when Nc1c(F)cc(-n2ccc(NC(=O)C3(c4ccccc4F)CC3)n2)cc1F [Compound 384, N-[1-(4-amino-3,5-difluoro-phenyl)pyrazol-3-yl]-1-(2-fluorophenyl)cyclopropanecarboxamide] was run?
Answer: The pIC50 was 6.01.

Question: How did the pIC50 turn out when Cc1ncncc1-n1ccc(NC(=O)C2(c3ccccc3F)CC2)n1 [Compound 341, 1-(2-fluorophenyl)-N-[1-(4-methylpyrimidin-5-yl)pyrazol-3-yl]cyclopropanecarboxamide] was run?
Answer: The pIC50 was 6.15.

same assay, conditions: Homo sapiens, HEK293, HEK293 cells; average of one or more replicates; read-out: Average HEK293 IC50

Question: CC1CC1(C(=O)Nc1ccn(-c2ccc(F)cc2)n1)c1ncccc1F (stereo not drawn) [Compound 505, N-[1-(4-fluorophenyl)pyrazol-3-yl]-1-(3-fluoro-2-pyridyl)-2-methyl-cyclopropanecarboxamide] was tested. Which pIC50 did it give?
Answer: The pIC50 was 6.96.

Question: How did the pIC50 turn out when Cn1cc(-n2ccc(NC(=O)C3(c4ccccc4F)CC3)n2)nn1 [Compound 400, 1-(2-fluorophenyl)-N-(1-(1-methyl-1H-1,2,3-triazol-4-yl)-1H-pyrazol-3-yl)cyclopropane-1-carboxamide] was run?
Answer: The pIC50 was under 5.30.

Question: How did the pIC50 turn out when O=C(Nc1ccn(-c2ccccc2)n1)C1(c2ncccc2F)CC1 [Compound 281, 1-(3-fluoro-2-pyridyl)-N-(1-phenylpyrazol-3-yl)cyclopropanecarboxamide] was run?
Answer: The pIC50 was 7.24.

Question: With O=C(Nc1ccn(-c2cc(F)cc(F)c2)n1)C1(c2ccc(F)cn2)CC1 [Compound 487, N-[1-(3,5-difluorophenyl)pyrazol-3-yl]-1-(5-fluoro-2-pyridyl)cyclopropanecarboxamide] as the compound, how does the pIC50 read?
Answer: Its pIC50 is 5.92.

Question: O=C(Nc1ccn(-c2cc(F)cc(F)c2)n1)C1(c2ccccc2F)CC1 [Compound 301, N-[1-(3,5-difluorophenyl)pyrazol-3-yl]-1-(2-fluorophenyl)cyclopropanecarboxamide] was tested. Which pIC50 did it give?
Answer: Its pIC50 is 6.85.

Question: O=C(Nc1ccn(-c2ccccc2)n1)C1(c2ccccc2)COC1 [Compound 144, 3-phenyl-N-(1-phenylpyrazol-3-yl)oxetane-3-carboxamide] was tested. Which pIC50 did it give?
Answer: Its pIC50 is 6.59.

Question: How did the pIC50 turn out when O=C(Nc1ccn(-c2cncnc2)n1)C1(c2ccccc2F)CC1 [Compound 85, 1-(2-fluorophenyl)-N-(1-pyrimidin-5-ylpyrazol-3-yl)cyclopropanecarboxamide] was run?
Answer: Its pIC50 is 7.02.

Question: O=C(Nc1ccn(-c2ccccc2)n1)C1(c2cccs2)CC1 [Compound 474, N-(1-phenylpyrazol-3-yl)-1-(2-thienyl)cyclopropanecarboxamide] was tested. Which pIC50 did it give?
Answer: Its pIC50 is 7.72.

Question: With O=C(Cc1ccccc1)Nc1ccn(-c2ccccn2)n1 [Compound 86, 2-phenyl-N-[1-(2-pyridyl)pyrazol-3-yl]acetamide] as the compound, how does the pIC50 read?
Answer: Its pIC50 is 6.17.

Question: With O=C(Cc1ccc(F)cc1)Nc1ccn(-c2ccncc2)n1 [Compound 102, 2-(4-fluorophenyl)-N-[1-(4-pyridyl)pyrazol-3-y]+acetamide] as the compound, how does the pIC50 read?
Answer: Its pIC50 is 5.44.

Question: How did the pIC50 turn out when O=C(Cc1ccccc1F)Nc1ccn(-c2cccc(F)c2)n1 [Compound 126, 2-(2-fluorophenyl)-N-[1-(3-fluorophenyl)pyrazol-3-yl]acetamide] was run?
Answer: The pIC50 was 6.30.

Question: With [2H]C1([2H])C([2H])([2H])C1(C(=O)Nc1ccn(-c2ccnc(F)c2)n1)c1ccccc1F [Compound 276, 2,2,3,3-tetradeuterio-1-(2-fluorophenyl)-N-[1-(2-fluoro-4-pyridyl)pyrazol-3-yl]cyclopropanecarboxamide] as the compound, how does the pIC50 read?
Answer: Its pIC50 is 7.96.

Question: O=C(Nc1ccn(-c2cccnn2)n1)C1(c2ncccc2F)CC1 [Compound 458, 1-(3-fluoro-2-pyridyl)-N-(1-pyridazin-3-ylpyrazol-3-yl)cyclopropanecarboxamide] was tested. Which pIC50 did it give?
Answer: Its pIC50 is 6.03.

same assay, conditions: average of one or more replicates; 13C-labeled C26:0 LPC, 48 hours; read-out: Average HEK293 IC50

Question: How did the pIC50 turn out when O=C(Nc1ccn(-c2cccc(Cl)c2)n1)C1(c2ccccc2)CC1(F)F (single isomer, unassigned) [Compound 437] was run?
Answer: Its pIC50 is 5.62.
